The structures appear in SMILES notation.

The target of the assay is T1, human PTP1B (Homo sapiens, UniProt P18031).
T1 construct: but without the carboxy-terminal hydrophobic region (corresponding to 1-299 aa); made in house; host or cells: Sf9 insect cells (Spodoptera frugiperda), Bac-to-Bac baculovirus system
T1 sequence (P18031 1-299): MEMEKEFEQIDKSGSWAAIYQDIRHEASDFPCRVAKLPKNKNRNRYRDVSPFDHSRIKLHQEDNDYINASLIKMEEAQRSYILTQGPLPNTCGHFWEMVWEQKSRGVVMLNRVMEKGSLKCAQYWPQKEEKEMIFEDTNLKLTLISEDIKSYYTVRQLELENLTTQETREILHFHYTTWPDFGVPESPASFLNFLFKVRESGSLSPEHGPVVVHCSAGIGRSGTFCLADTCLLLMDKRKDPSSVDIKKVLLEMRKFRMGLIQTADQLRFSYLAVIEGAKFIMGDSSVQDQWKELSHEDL
Put plainly: PTP Assay PTP1B DiFMUP (enzymatic test for inhibition of a phosphatase). The conditions noted are these: recombinant hPTP1B (aa 1-299, expressed in Sf9 cells); substrate DiFMUP per table head; read-out: IC-50 (μM) PTP Assay PTP1B DiFMUP. The class given is biochemical.

As for `O=C(O)c1cc(-c2csc(Nc3ccc(-c4ccccc4)cc3)n2)ccc1O` [Example 17], the IC50 stood at 0.7 µM.
